Columns and labels:
Experiment in all cases: relative viability (nuclei count vs DMSO), 5 days (fraction); higher = more cells survive
Selisistat + Navitoclax = compound: C1CC(C2=C(C1)C3=C(N2)C=CC(=C3)Cl)C(=O)N [Selisistat] + CC1(C)CCC(c2ccc(Cl)cc2)=C(CN2CCN(c3ccc(C(=O)NS(=O)(=O)c4ccc(N[C@H](CCN5CCOCC5)CSc5ccccc5)c(S(=O)(=O)C(F)(F)F)c4)cc3)CC2)C1 [Navitoclax] (partner 0.5 µM)
Method in brief: (§1)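 For relative viability, nuclei counts in treated wells were divided by those in vehicle wells. Lung cancer cell lines had been pin-tool dosed in 1536-well plates the day after seeding and cultured for 5 days, then fixed and stained in one step (final 0.05% Triton X-100, 1% formaldehyde, 1 ug/ml Hoechst) and imaged at 4×. Doses were one drug alone or a fixed anchor-drug dose plus five library-drug doses (not always all listed) in √10 steps, and values are duplicate-plate medians.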

Selisistat + Lapatinib = compound: C1CC(C2=C(C1)C3=C(N2)C=CC(=C3)Cl)C(=O)N [Selisistat] + CS(=O)(=O)CCNCc1ccc(-c2ccc3ncnc(Nc4ccc(OCc5cccc(F)c5)c(Cl)c4)c3c2)o1 [Lapatinib] (partner 2 µM)
Method in brief: as §1

Serdemetan + Luminespib = compound: c1ccc2c(CCNc3ccc(Nc4ccncc4)cc3)c[nH]c2c1 [Serdemetan] + CCNC(=O)c1noc(-c2cc(C(C)C)c(O)cc2O)c1-c1ccc(CN2CCOCC2)cc1 [Luminespib] (partner 0.01 µM)
Method in brief: as §1

Serdemetan + Dasatinib = compound: c1ccc2c(CCNc3ccc(Nc4ccncc4)cc3)c[nH]c2c1 [Serdemetan] + Cc1nc(Nc2ncc(C(=O)Nc3c(C)cccc3Cl)s2)cc(N2CCN(CCO)CC2)n1 [Dasatinib] (partner 0.075 µM)
Method in brief: as §1

Cell Line | relative viability (Selisistat + Navitoclax; first compound 0.4 µM) | relative viability (Selisistat + Navitoclax; first compound 1.265 µM) | relative viability (Selisistat + Navitoclax; first compound 4 µM) | relative viability (Selisistat + Navitoclax; first compound 12.65 µM) | relative viability (Selisistat + Navitoclax; first compound 40 µM) | relative viability (Selisistat + Lapatinib; first compound 0.4 µM) | relative viability (Selisistat + Lapatinib; first compound 1.265 µM) | relative viability (Selisistat + Lapatinib; first compound 4 µM) | relative viability (Selisistat + Lapatinib; first compound 12.65 µM) | relative viability (Selisistat + Lapatinib; first compound 40 µM) | relative viability (Serdemetan + Luminespib; first compound 0.04 µM) | relative viability (Serdemetan + Luminespib; first compound 0.1265 µM) | relative viability (Serdemetan + Luminespib; first compound 0.4 µM) | relative viability (Serdemetan + Luminespib; first compound 4 µM) | relative viability (Serdemetan + Dasatinib; first compound 0.04 µM) | relative viability (Serdemetan + Dasatinib; first compound 0.1265 µM) | relative viability (Serdemetan + Dasatinib; first compound 1.265 µM) | relative viability (Serdemetan + Dasatinib; first compound 4 µM) | relative viability (Serdemetan + Luminespib; first compound 1.265 µM) | relative viability (Serdemetan + Dasatinib; first compound 0.4 µM)
EKVX | 0.905 | 0.918 | 0.745 | 0.874 | 0.945 | 0.213 | 0.243 | 0.185 | 0.252 | 0.215 | 0.947 | 0.925 | 0.861 | 0.585 | 0.523 | 0.645 | 0.355 | 0.371 | – | –
NCI-H1651 | 0.902 | 0.974 | 0.934 | 1 | 0.945 | 0.785 | 0.769 | 0.749 | 0.789 | 0.939 | 0.714 | 0.591 | 0.457 | 0.273 | 0.296 | 0.319 | 0.237 | 0.186 | 0.473 | 0.281
NCI-H1944 | 1.1 | 0.998 | – | 1.04 | 0.927 | 0.797 | 0.767 | – | 0.746 | 0.854 | 0.664 | 0.679 | 0.691 | 0.306 | 0.201 | 0.212 | 0.131 | 0.164 | 0.249 | 0.218
SW 1573 | 0.997 | 0.781 | 0.93 | 1.15 | 0.934 | 1.14 | 1.02 | 1.02 | 1.04 | 1.12 | 0.343 | 0.161 | 0.215 | 0.192 | 0.452 | 0.488 | 0.396 | 0.217 | 0.113 | 0.511
A-427 | 0.98 | 0.986 | 1.04 | 0.878 | 1.11 | 1.03 | 1.02 | 0.98 | 0.879 | 1.12 | 0.934 | 0.924 | 0.953 | 0.49 | 0.666 | 0.653 | 0.64 | 0.603 | 0.742 | 0.655
NCI-H2347 | 0.846 | 0.847 | 0.588 | 0.792 | 0.853 | 1.06 | 0.943 | 0.482 | 0.882 | 0.983 | 1.08 | 0.56 | 0.215 | 0.292 | 0.336 | 0.305 | 0.303 | 0.237 | 0.264 | 0.286
NCI-H1355 | 1.01 | 0.887 | – | 1.03 | 1.03 | 0.923 | 1 | – | 1.02 | 1.04 | 0.671 | 0.667 | 0.609 | 0.449 | 0.78 | 0.759 | 0.602 | 0.76 | 0.353 | 0.601
PC-3 [JPC-3] | 0.753 | 0.741 | 0.746 | 0.696 | 0.776 | 0.439 | 0.457 | 0.398 | 0.487 | 0.417 | 0.651 | 0.612 | 0.621 | 0.494 | 0.973 | 0.95 | 0.924 | 0.941 | 0.654 | 1.01

— the supplement of paper PMC10307832
